Test results as given in ChEMBL document CHEMBL5724914, “Linking interpersonal differences in gut microbiota composition and drug biotransformation activity” (2024).

What was measured:
[1] = (§1) The drug is tested on WLS-039 corresponding to human gut metagenome with ENA study accession number: PRJEB37062 and ENA sample accession number: ERS12561746 for biotransformation under anaerobic condition. The drug concentrations were measured over 9 timepoints collected between 0 and 24 hours of incubation by liquid-chromatography-coupled mass spectrometry (LC–MS); conditions: 2 µM
[2] = as §1, with “WLS-082” for “WLS-039”, “ERS12561751” for “ERS12561746”; conditions: 2 µM
[3] = human gut metagenome, 24 h, 2 µM
[4] = as §1, with “Z-025” for “WLS-039”, “rabbit” for “human”, “ERS12561824” for “ERS12561746”; conditions: 2 µM
[5] = human gut metagenome, 24 h, 2 µM; remark: listed apart in the source
[6] = as §1, with “Z-010” for “WLS-039”, “to” for “to human gut”, “ERS12561810” for “ERS12561746”; conditions: 2 µM
[7] = human gut metagenome, 24 h, 2 µM; remark: listed apart in the source
[8] = as §1, with “Z-017” for “WLS-039”, “mouse” for “human”, “ERS12561816” for “ERS12561746”; conditions: 2 µM
[9] = as §1, with “WLS-007” for “WLS-039”, “ERS12561742” for “ERS12561746”; conditions: 2 µM
[10] = human gut metagenome, 24 h, 2 µM; remark: listed apart in the source
[11] = as §1, with “WLS-240” for “WLS-039”, “ERS12561773” for “ERS12561746”; conditions: 2 µM
[12] = human gut metagenome, 24 h, 2 µM; remark: listed apart in the source
[13] = as §1, with “WLS-010” for “WLS-039”, “ERS12561743” for “ERS12561746”; conditions: 2 µM
[14] = human gut metagenome, 24 h, 2 µM; remark: listed apart in the source
[15] = human gut metagenome, 24 h, 2 µM; remark: listed apart in the source
[16] = human gut metagenome, 24 h, 2 µM; remark: listed apart in the source
[17] = as §1, with “WLS-350” for “WLS-039”, “ERS12561789” for “ERS12561746”; conditions: 2 µM
[18] = human gut metagenome, 24 h, 2 µM; remark: listed apart in the source
[19] = human gut metagenome, 24 h, 2 µM; remark: listed apart in the source
[20] = human gut metagenome, 24 h, 2 µM; remark: listed apart in the source
Further: call rule not given here.

Structure (SMILES) | Bacterial Biotransformation [1] | Bacterial Biotransformation [2] | Bacterial Biotransformation [3] | Bacterial Biotransformation [4] | Bacterial Biotransformation [5] | Bacterial Biotransformation [6] | Bacterial Biotransformation [7] | Bacterial Biotransformation [8] | Bacterial Biotransformation [9] | Bacterial Biotransformation [10] | Bacterial Biotransformation [11] | Bacterial Biotransformation [12] | Bacterial Biotransformation [13] | Bacterial Biotransformation [14] | Bacterial Biotransformation [15] | Bacterial Biotransformation [16] | Bacterial Biotransformation [17] | Bacterial Biotransformation [18] | Bacterial Biotransformation [19] | Bacterial Biotransformation [20]
CCN(CC)CCNC(=O)c1cc(Cl)c(N)cc1OC [METOCLOPRAMIDE] | Compound NOT metabolized | Compound NOT metabolized | Compound NOT metabolized | Compound NOT metabolized | Compound NOT metabolized | Compound NOT metabolized | Compound NOT metabolized | Compound NOT metabolized | Compound NOT metabolized | Compound NOT metabolized | Compound metabolized | Compound NOT metabolized | Compound NOT metabolized | Compound NOT metabolized | Compound NOT metabolized | Compound NOT metabolized | Compound NOT metabolized | Compound NOT metabolized | Compound NOT metabolized | Compound NOT metabolized
Cc1ccccc1N1C(=O)c2cc(S(N)(=O)=O)c(Cl)cc2NC1C (stereo not given) [METOLAZONE] | Compound NOT metabolized | Compound NOT metabolized | Compound metabolized | Compound metabolized | Compound NOT metabolized | Compound NOT metabolized | Compound NOT metabolized | Compound NOT metabolized | Compound NOT metabolized | Compound NOT metabolized | Compound metabolized | Compound metabolized | Compound NOT metabolized | Compound NOT metabolized | Compound metabolized | Compound NOT metabolized | Compound metabolized | Compound metabolized | Compound NOT metabolized | Compound metabolized
COCCc1ccc(OCC(O)CNC(C)C)cc1.COCCc1ccc(OCC(O)CNC(C)C)cc1.O=C(O)C(O)C(O)C(=O)O (stereo not given) [METOPROLOL TARTRATE] | Compound NOT metabolized | Compound NOT metabolized | Compound metabolized | Compound metabolized | Compound NOT metabolized | Compound metabolized | Compound NOT metabolized | Compound NOT metabolized | Compound NOT metabolized | Compound metabolized | Compound metabolized | Compound NOT metabolized | Compound NOT metabolized | Compound NOT metabolized | Compound metabolized | Compound metabolized | Compound metabolized | Compound metabolized | Compound metabolized | Compound metabolized
COc1c(C)c2c(c(O)c1C/C=C(\C)CCC(=O)OCCN1CCOCC1)C(=O)OC2 [MYCOPHENOLATE MOFETIL] | Compound metabolized | Compound metabolized | Compound metabolized | Compound metabolized | Compound metabolized | Compound metabolized | Compound metabolized | Compound metabolized | Compound metabolized | Compound metabolized | Compound metabolized | Compound metabolized | Compound metabolized | Compound metabolized | Compound metabolized | Compound metabolized | Compound metabolized | Compound metabolized | Compound metabolized | Compound metabolized
Cc1ccnc2c1NC(=O)c1cccnc1N2C1CC1 [NEVIRAPINE] | Compound NOT metabolized | Compound NOT metabolized | Compound metabolized | Compound NOT metabolized | Compound NOT metabolized | Compound NOT metabolized | Compound NOT metabolized | Compound NOT metabolized | Compound metabolized | Compound NOT metabolized | Compound metabolized | Compound NOT metabolized | Compound NOT metabolized | Compound metabolized | Compound metabolized | Compound NOT metabolized | Compound metabolized | Compound metabolized | Compound NOT metabolized | Compound metabolized

Further lines, results first:

Bacterial Biotransformation [1] | Bacterial Biotransformation [2] | Bacterial Biotransformation [3] | Bacterial Biotransformation [4] | Bacterial Biotransformation [5] | Bacterial Biotransformation [6] | Bacterial Biotransformation [7] | Bacterial Biotransformation [8] | Bacterial Biotransformation [9] | Bacterial Biotransformation [10] | Bacterial Biotransformation [11] | Bacterial Biotransformation [12] | Bacterial Biotransformation [13] | Bacterial Biotransformation [14] | Bacterial Biotransformation [15] | Bacterial Biotransformation [16] | Bacterial Biotransformation [17] | Bacterial Biotransformation [18] | Bacterial Biotransformation [19] | Bacterial Biotransformation [20] | Structure (SMILES)
Compound metabolized | Compound metabolized | Compound metabolized | Compound NOT metabolized | Compound NOT metabolized | Compound metabolized | Compound metabolized | Compound NOT metabolized | Compound metabolized | Compound metabolized | Compound metabolized | Compound metabolized | Compound metabolized | Compound metabolized | Compound metabolized | Compound metabolized | Compound metabolized | Compound metabolized | Compound metabolized | Compound metabolized | CCN(CC)CCOC(=O)C(Cc1cccc2ccccc12)CC1CCCO1.O=C(O)C(=O)O (stereo not given) [NAFRONYL OXALATE]
Compound metabolized | Compound metabolized | Compound metabolized | Compound NOT metabolized | Compound metabolized | Compound NOT metabolized | Compound NOT metabolized | Compound NOT metabolized | Compound metabolized | Compound NOT metabolized | Compound metabolized | Compound NOT metabolized | Compound metabolized | Compound metabolized | Compound NOT metabolized | Compound metabolized | Compound NOT metabolized | Compound metabolized | Compound NOT metabolized | Compound metabolized | CCc1nn(CCCN2CCN(c3cccc(Cl)c3)CC2)c(=O)n1CCOc1ccccc1 [NEFAZODONE]
Compound NOT metabolized | Compound NOT metabolized | Compound metabolized | Compound NOT metabolized | Compound NOT metabolized | Compound NOT metabolized | Compound NOT metabolized | Compound NOT metabolized | Compound metabolized | Compound NOT metabolized | Compound NOT metabolized | Compound metabolized | Compound metabolized | Compound metabolized | Compound metabolized | Compound NOT metabolized | Compound metabolized | Compound metabolized | Compound metabolized | Compound metabolized | CN1CCOC(c2ccccc2)c2ccccc2C1 (stereo not given) [NEFOPAM]
